Converted amounts (≈) assume the structure as drawn.
Test: Water solubility of cholesterol at 37° C. determined by HPLC
Assay type: physicochemical
Procedure: Reference is made to two chemical compounds: pure cholesterol (C-pure), and modified cholesterol (C-mod). C-mod is made by partial thermal degradation of C-pure. As a consequence, C-mod is structurally very similar, but not identical, to C-pure. In the first of three steps to this example, a quantity of C-mod is produced by heating 10 grams of dry C-pure in the presence of oxygen for 30 minutes at 134° C., which is a temperature that is 15° below the melting point of the pure substance. In a second step to this example, 10 mg of C-pure is added to one liter of distilled water. The resulting suspension is then stirred at 50° C. for two hours, followed by stirring at 37° C. for 6 hours. The concentration of solute in solution at 37° is then determined by an HPLC analytical method. […] In the third and final step to this example, the process of the second step is repeated with 10 mg of C-pure in one liter of distilled water, and 10 mg of C-mod is also added to the initial suspension. In this case, HPLC determination of the concentration of C-pure in the supernatant solution results in a finding of 1.2 mg/100 mL. […] This increase in apparent solubility of C-pure is considered to be a consequence of the selective inhibition of crystal nucleation and growth, due to the presence of molecules that are similar to but not identical to those of the solute.

concentration of C-pure in the supernatant solution (apparent solubility) (10 mg C-pure plus 10 mg C-mod in one liter distilled water, 37° C., HPLC specific to C-pure): 1.2 mg/100 mL | solubility thermodynamic (thermodynamic from solid, 10 mg C-pure in one liter distilled water, stirred 50° C. 2 h then 37° C. 6 h, HPLC, no C-mod): 4.5 µg/mL (≈ 11.6 µM)
Structure (SMILES): CC(C)CCC[C@@H](C)[C@H]1CC[C@H]2[C@@H]3CC=C4C[C@@H](O)CC[C@]4(C)[C@H]3CC[C@]12C [C-pure, cholesterol]
